Laboratory results as given in ChEMBL document CHEMBL5390272, “Discovery of a potent and selective human AC2 inhibitor based on 7-deazapurine analogues of adefovir” (Bioorg Med Chem, 2023).

How the values were obtained:
[1] = molecular target: T1, Calmodulin-sensitive adenylate cyclase (Bacillus anthracis, UniProt P40136); assay: Inhibition of Bacillus anthracis Edema factor
T1 sequence (P40136 whole entry): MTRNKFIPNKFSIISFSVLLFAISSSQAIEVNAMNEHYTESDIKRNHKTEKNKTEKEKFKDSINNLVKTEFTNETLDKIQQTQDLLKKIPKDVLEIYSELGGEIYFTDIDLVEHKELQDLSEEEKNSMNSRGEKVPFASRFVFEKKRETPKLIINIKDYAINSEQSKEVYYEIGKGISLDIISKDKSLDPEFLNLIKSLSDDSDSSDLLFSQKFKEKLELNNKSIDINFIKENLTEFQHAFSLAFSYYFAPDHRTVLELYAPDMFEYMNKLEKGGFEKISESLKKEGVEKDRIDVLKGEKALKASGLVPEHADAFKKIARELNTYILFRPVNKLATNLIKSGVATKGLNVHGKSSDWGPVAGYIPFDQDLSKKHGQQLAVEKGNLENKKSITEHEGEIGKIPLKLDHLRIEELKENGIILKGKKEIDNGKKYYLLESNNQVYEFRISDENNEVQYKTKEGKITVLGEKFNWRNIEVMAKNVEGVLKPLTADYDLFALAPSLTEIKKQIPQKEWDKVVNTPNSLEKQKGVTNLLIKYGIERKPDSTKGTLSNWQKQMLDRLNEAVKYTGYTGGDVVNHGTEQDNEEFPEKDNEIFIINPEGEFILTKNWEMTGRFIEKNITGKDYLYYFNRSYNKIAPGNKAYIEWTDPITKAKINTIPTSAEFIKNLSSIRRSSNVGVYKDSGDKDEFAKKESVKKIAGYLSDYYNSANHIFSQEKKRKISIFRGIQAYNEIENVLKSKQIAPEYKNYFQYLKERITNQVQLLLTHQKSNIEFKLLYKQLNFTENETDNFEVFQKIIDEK

[2] = Inhibition of Bordetella pertussis Adenylate cyclase toxin in mouse J774.A1 cells preincubated for 5 hrs followed by ACT addition and measured after 30 mins by CatchPointcAMP immunoassay method; format: cell-based
[3] = Cytotoxicity against mouse J774.A1 cells assessed as cell viability at 10 uM incubated for 5 hrs by Cell Titer-Glo Luminescent Cell Viability assay relative to control; format: toxicity, cell-based; conditions: read-out: Activity
HepG2 = assay: Cytotoxicity against human HepG2 cells by CellTiter-Glo 2.0 assay; format: functional, cell-based
HeLa S3 = assay: Cytotoxicity against human HeLa S3 cells by CellTiter-Glo 2.0 assay; format: functional, cell-based
NHDF = assay: Cytotoxicity against human NHDF cells by CellTiter-Glo 2.0 assay; format: toxicity, cell-based
HL-60 = assay: Cytotoxicity against human HL-60 cells by CellTiter-Glo 2.0 assay; format: functional, cell-based
HEK293 = assay: Cytotoxicity against AC1 expressed HEK293 cells by CellTiter-Glo 2.0 assay relative to control; format: toxicity, cell-based; set-up: concentration or dose not given beside the values; conditions: human
CCRF-CEM = assay: Cytotoxicity against human CCRF-CEM cells by CellTiter-Glo 2.0 assay; format: functional, cell-based

| SMILES | IC50 [1] | IC50 [2] | viability at 5 h, 10 µM [3] | IC50 (HepG2) | IC50 (HeLa S3) | IC50 (NHDF) | IC50 (HL-60) | Activity (HEK293) | IC50 (CCRF-CEM) |
| --- | --- | --- | --- | --- | --- | --- | --- | --- | --- |
| Nc1ncnc2c1c(-c1ccccn1)cn2CCOCP(=O)(O)OP(=O)(O)OP(=O)(O)O | 0.0508 µM | 0.108 µM |  |  |  |  |  |  |  |
| CC(C)OC(=O)[C@H](Cc1ccccc1)NP(=O)(COCCn1cc(-c2cccs2)c2c(N)ncnc21)N[C@@H](Cc1ccccc1)C(=O)OC(C)C |  |  | 36% | 1.02 µM | 1.09 µM | 0.4 µM | 0.56 µM | -9% | 0.79 µM |
| COc1ccc(-c2cn(CCOCP(=O)(O)OP(=O)(O)OP(=O)(O)O)c3ncnc(N)c23)cc1 | 0.0884 µM | 0.186 µM |  |  |  |  |  |  |  |
| CC(C)OC(=O)[C@H](Cc1ccccc1)NP(=O)(COCCn1cc(-c2cccc(C(=O)O)c2)c2c(N)ncnc21)N[C@@H](Cc1ccccc1)C(=O)OC(C)C |  | 6.09 µM | 104% | > 10 µM | > 10 µM | > 10 µM | > 10 µM | 115% | > 10 µM |
| CC(C)OC(=O)[C@H](Cc1ccccc1)NP(=O)(COCCn1cc(-c2cccc(S(N)(=O)=O)c2)c2c(N)ncnc21)N[C@@H](Cc1ccccc1)C(=O)OC(C)C |  | 3.41 µM | 114% | > 10 µM | > 10 µM | > 10 µM | 4.8 µM | 110% | 5.56 µM |
| CCc1cn(CCOCP(=O)(N[C@@H](Cc2ccccc2)C(=O)OC(C)C)N[C@@H](Cc2ccccc2)C(=O)OC(C)C)c2ncnc(N)c12 |  | > 10 µM | 125% | > 10 µM | > 10 µM | > 10 µM | 7.89 µM | 90% | > 10 µM |
| CC(C)OC(=O)[C@H](Cc1ccccc1)NP(=O)(COCCn1cc(-c2ccco2)c2c(N)ncnc21)N[C@@H](Cc1ccccc1)C(=O)OC(C)C |  |  | 43% | 0.99 µM | 1.29 µM | 0.35 µM | 0.66 µM | -9% | 0.99 µM |
| CC(C)OC(=O)[C@H](Cc1ccccc1)NP(=O)(COCCn1cc(-c2cncnc2)c2c(N)ncnc21)N[C@@H](Cc1ccccc1)C(=O)OC(C)C |  | > 10 µM | 128% | > 10 µM | > 10 µM | > 10 µM | > 10 µM | 102% | > 10 µM |
| COc1ccc(-c2cn(CCOCP(=O)(OCOC(=O)C(C)(C)C)OCOC(=O)C(C)(C)C)c3ncnc(N)c23)cc1 |  | 10.2 µM | 85% | > 10 µM | > 10 µM | > 10 µM | > 10 µM |  | > 10 µM |
| CC(C)OC(=O)[C@H](Cc1ccccc1)NP(=O)(COCCn1cc(-c2cccc(NS(C)(=O)=O)c2)c2c(N)ncnc21)N[C@@H](Cc1ccccc1)C(=O)OC(C)C |  | 2.95 µM | 87% | > 10 µM | 15.2 µM | > 10 µM | 7.08 µM | 98% | 6.92 µM |
| COc1cccc(-c2cn(CCOCP(=O)(N[C@@H](Cc3ccccc3)C(=O)OC(C)C)N[C@@H](Cc3ccccc3)C(=O)OC(C)C)c3ncnc(N)c23)c1 |  | 4.8 µM | 94% | 13.9 µM | 9.16 µM | > 10 µM | 5.47 µM | -14% | 4.85 µM |
| COc1ccccc1-c1cn(CCOCP(=O)(N[C@@H](Cc2ccccc2)C(=O)OC(C)C)N[C@@H](Cc2ccccc2)C(=O)OC(C)C)c2ncnc(N)c12 |  | 2.17 µM | 112% | 4.57 µM | 3.65 µM | > 10 µM | 6.61 µM | -12% | 6.2 µM |
| C#Cc1cn(CCOCP(=O)(N[C@@H](Cc2ccccc2)C(=O)OC(C)C)N[C@@H](Cc2ccccc2)C(=O)OC(C)C)c2ncnc(N)c12 |  | > 10 µM | 129% | 7.9 µM | > 10 µM | > 10 µM | 6.46 µM | 85% | 5.77 µM |
| Nc1ncnc2c1ncn2CCOCP(=O)(O)OP(=O)(O)OP(=O)(O)O [ADEFOVIR DIPHOSPHATE] | 0.0135 µM |  |  |  |  |  |  |  |  |
